The assay concerns the target interaction between p53 and MDM2 proteins (recombinant GST-tagged MDM2, biotinylated p53 peptide) (Homo sapiens, UniProt Q00987). Briefly: HTRF (homogeneous time-resolved fluorescence) assay of p53-MDM2 interaction. In kind it is binding. The settings on record: bsa 0.02%. As for the experimental part:
The ability of the compounds to inhibit the interaction between p53 and MDM2 proteins was measured by an HTRF (homogeneous time-resolved fluorescence) assay in which recombinant GST-tagged MDM2 binds to a peptide that resembles the MDM2-interacting region of p53 (Lane et al.). Binding of GST-MDM2 protein and p53-peptide (biotinylated on its N-terminal end) is registered by the FRET (fluorescence resonance energy transfer) between Europium (Eu)-labeled anti-GST antibody and streptavidin-conjugated Allophycocyanin (APC).
Add 10 uL diluted compounds (1:5 dilution in reaction buffer) to each well, mix by shaking. Add 20 uL biotinylated p53 peptide (180 nM working solution) in reaction buffer to each well and mix on shaker. Incubate at 37° C. for 1 h. Add 20 uL streptavidin-APC and Eu-anti-GST antibody mixture (6 nM Eu-anti-GST and 60 nM streptavidin-APC working solution) in TBS buffer with 0.2% BSA, shake at room temperature for 30 minutes and read using a TRF-capable plate reader at
665 and 615 nm (Victor 5, Perkin ElmerWallac). If not specified, the reagents were purchased from Sigma Chemical Co.
In general terms: Time-resolved FRET reads energy transfer from a long-lived donor to a nearby acceptor.
interaction between p53 and MDM2 proteins (recombinant GST-tagged MDM2, biotinylated p53 peptide), sequence (Q00987 whole entry): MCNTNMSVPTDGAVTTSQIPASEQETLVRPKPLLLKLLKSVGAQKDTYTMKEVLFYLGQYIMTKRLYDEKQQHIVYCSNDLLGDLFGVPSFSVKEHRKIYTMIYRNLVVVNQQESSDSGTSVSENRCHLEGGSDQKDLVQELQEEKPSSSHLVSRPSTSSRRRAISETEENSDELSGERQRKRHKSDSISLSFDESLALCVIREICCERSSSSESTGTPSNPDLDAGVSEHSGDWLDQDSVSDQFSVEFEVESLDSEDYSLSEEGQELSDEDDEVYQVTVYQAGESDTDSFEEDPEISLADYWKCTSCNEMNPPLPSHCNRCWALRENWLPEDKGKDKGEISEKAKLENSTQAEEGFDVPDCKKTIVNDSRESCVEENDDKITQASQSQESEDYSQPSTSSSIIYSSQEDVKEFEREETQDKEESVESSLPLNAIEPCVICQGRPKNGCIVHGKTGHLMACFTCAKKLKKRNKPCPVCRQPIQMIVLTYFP
`CC(C)(CO)C[C@@H]1CN(C(=O)NCC[C@H](O)CO)[C@H](c2cccc(Cl)c2F)[C@]12C(=O)Nc1cc(Cl)ccc12` (mixture of isomers) [Example 33, rac-(2′S,3′S,4′S)-6-chloro-2′-(3-chloro-2-fluoro-phenyl)-4′-(3-hydroxy-2,2-dimethyl-propyl)-2-oxo-1,2-dihydro-spiro[indole-3,3′-pyrrolidine]-1′-carboxylic acid ((S)-3,4-dihydroxy-butyl)-amide]: the IC50 – broadly, the concentration needed to halve the response being measured – worked out at 725 nM.

In the case of `CC(C)(C)C[C@@H]1CN[C@H](c2cccc(Cl)c2F)[C@]12C(=O)Nc1cc(Cl)ccc12` (racemic) [Example 6, rac-(2′S,3′S,4′S)-6-chloro-2′-(3-chloro-2-fluoro-phenyl)-4′-(2,2-dimethyl-propyl)-1H-spiro[indole-3,3′-pyrrolidin]-2-one], the IC50 worked out at 773 nM.

As for `COC(=O)c1ccc(NC(=O)N2C[C@@H](CC(C)(C)C)[C@@]3(C(=O)Nc4cc(Cl)ccc43)[C@H]2c2cccc(Cl)c2F)cc1` (racemic) [Example 12, rac-4-{[(2′S,3′S,4′S)-6-chloro-2′-(3-chloro-2-fluoro-phenyl)-4′-(2,2-dimethyl-propyl)-2-oxo-1,2-dihydro-spiro[indole-3,3′-pyrrolidin]e-1′-carbonyl]-amino}-benzoic acid methyl ester], the half-maximal inhibitory concentration (IC50) was determined as 581 nM.

For `CC(C)(C)C[C@@H]1CN(C(=O)OCc2ccc(C(=O)O)cc2)[C@H](c2cccc(Cl)c2F)[C@]12C(=O)Nc1cc(Cl)ccc12` (racemic) [Example 49, rac-(2′S,3′S,4′S)-6-chloro-2′-(3-chloro-2-fluoro-phenyl)-4′-(2,2-dimethyl-propyl)-2-oxo-1,2-dihydro-spiro[indole-3,3′-pyrrolidine]-1′-carboxylic acid 4-carboxy-benzyl ester], the half-inhibitory concentration (IC50) stood at 178 nM.

Consider `CC(C)(C)C[C@@H]1CN(C(=O)NC2CCN(S(C)(=O)=O)CC2)[C@H](c2cccc(Cl)c2F)[C@]12C(=O)Nc1cc(Cl)ccc12` [Example 28, chiral (2′S,3′S,4′S)-6-chloro-2′-(3-chloro-2-fluoro-phenyl)-4′-(2,2-dimethyl-propyl)-2-oxo-1,2-dihydro-spiro[indole-3,3′-pyrrolidine]-1′-carboxylic acid (1-methanesulfonyl-piperidin-4-yl)-amide], for which the IC50 was 133 nM.

The values above are taken from patent US8288431B2, “Substituted spiroindolinones” (Hoffmann-La Roche Inc., priority 2010, dated 2012).
